Test results published in publication PMC9142559 (2022).

Key:
[1] = test system: yjdF wt aptamer domain (Streptococcus ratti) (RNA, riboswitch) GGUAUAAAAACACAUUGCAGUUGGUAGUCUGCAAGCAUCAUCAGAUGUCAGUAACCUUCCCUCCAAGGUCGUCCCAUACC; assay: SHAPE probing (protection of A4, A5); settings: 150 mM K+, 3 mM Mg2+; 20 mM MOPS-KOH pH 7.0, 10 μM EDTA, 2.5 μM ligand, 21 °C
[2] = test system: yjdF wt aptamer domain (Streptococcus ratti) (RNA, riboswitch) GGUAUAAAAACACAUUGCAGUUGGUAGUCUGCAAGCAUCAUCAGAUGUCAGUAACCUUCCCUCCAAGGUCGUCCCAUACC; assay: ligand fluorescence emission (10-fold increase); settings: 100 mM K+, 5 mM Mg2+; 20 mM Mops pH 7.0, 10 μM EDTA, 50 nM ligand, 20 °C
[3] = test system: yjdF TLC (T-loop chimera, Streptococcus ratti) (RNA, riboswitch) GGUAUAAAAACACAUUGCAGUUGGUAGUCUGCAAGCAUCAUCAGAUGUCAGUAACCGGUUCGAAUCCGGUCGUCCCAUACC; assay: ligand fluorescence titration with RNA; settings: 100 mM K+, 5 mM Mg2+; 20 mM Mops pH 7.0, 10 μM EDTA, 50 nM harmine; biphasic two-site Hill fit, site not stated; nearly identical to wt
[4] = test system: yjdF wt aptamer domain (Streptococcus ratti) (RNA, riboswitch) GGUAUAAAAACACAUUGCAGUUGGUAGUCUGCAAGCAUCAUCAGAUGUCAGUAACCUUCCCUCCAAGGUCGUCCCAUACC; assay: ligand fluorescence titration with RNA; settings: 100 mM K+, 5 mM Mg2+; 20 mM Mops pH 7.0, 10 μM EDTA, 50 nM harmine; biphasic two-site Hill fit, site not stated
[5] = test system: circΔP3 (circ∆L3) (RNA, riboswitch) GAUGUCAGUAACCUUCCCUCCAAGGUCGUCCCAUACCGUUCGCGGUAUAAAAACACAUUGCAGUUGGUAGUCUGCAAGCAUC; assay: ligand fluorescence titration with RNA; settings: 100 mM K+, 5 mM Mg2+; 20 mM Mops pH 7.0, 10 μM EDTA, 50 nM harmine; biphasic two-site Hill fit, site not stated; nearly identical to wt
[6] = test system: yjdF wt aptamer domain (Staphylococcus aureus) (RNA, riboswitch) UAGAAGUGUAAAAACACAAUUGGGUUGGUAGUCCCAAUGCAGUUUUAAAACUGUCAGUAACCUUCCUCCUCGGGUUGUCCGUCAUUUCUA; assay: ribosome filter binding (ligand-dependent); settings: 100 mM NH4+, 5 mM Mg2+; 20 mM Hepes pH 7.0, 0.5 mM spermine; indirect
[7] = test system: yjdF wt aptamer domain (Enterococcus pallens) (RNA, riboswitch) CGAGCAUAAAAACACGAGGCGGUUGGUAGUCCGCCGCAUGAAAAUGUCAGUAGCCUUCCCUCCCGGGUCGUCCAUUGCUCG; assay: SEC (ligand-dependent folding); settings: 100 mM K+, 5 mM Mg2+; 20 mM Mops pH 7.0, 10 μM EDTA; 60 nM chelerythrine in running buffer; indirect
[8] = test system: yjdF wt aptamer domain (Streptococcus ratti) (RNA, riboswitch) GGUAUAAAAACACAUUGCAGUUGGUAGUCUGCAAGCAUCAUCAGAUGUCAGUAACCUUCCCUCCAAGGUCGUCCCAUACC; assay: ligand fluorescence emission (10-fold increase, 25 nm shift); settings: 100 mM K+, 5 mM Mg2+; 20 mM Mops pH 7.0, 10 μM EDTA, 50 nM ligand, 20 °C
[9] = test system: yjdF wt aptamer domain (Staphylococcus aureus) (RNA, riboswitch) UAGAAGUGUAAAAACACAAUUGGGUUGGUAGUCCCAAUGCAGUUUUAAAACUGUCAGUAACCUUCCUCCUCGGGUUGUCCGUCAUUUCUA; assay: SAXS; ribosome filter binding (ligand-dependent); settings: 100 mM K+, 2.5 mM Mg2+ (SAXS); 20 mM Mops pH 7.0 (SAXS)

| binding [1] | binding [2] | binding [3] | Kd [4] [nM] | binding [5] | binding [6] | binding [7] | binding [8] | binding [9] | Compound |
| --- | --- | --- | --- | --- | --- | --- | --- | --- | --- |
| yes | yes |  |  |  |  |  |  |  | C[n+]1cc2c3c(ccc2c2ccc4cc5c(cc4c21)OCO5)OCO3 |
|  |  | yes | 230 ± 30 | yes | yes |  |  |  | COc1ccc2c(c1)[nH]c1c(C)nccc12 |
| yes |  |  |  |  |  | yes | yes | yes | COc1ccc2c(c[n+](C)c3c4cc5c(cc4ccc23)OCO5)c1OC |
